# Earlier results in patent US20240350374A1, “COMPOSITION AND METHODS OF TREATMENT USING TRANSDERMAL SUPPLEMENTATION” (Xygenyx Inc., priority 2023, published 2024).
# Where a SMILES comes first, the peptide text is derived from it.
# How the values were obtained:
# skin [1] = conditions: as penetration enhancer
# [2] = system: wide dynamic range neurons in the ventroposterolateral nucleus of the thalamus; conditions: believed
# skin [3] = conditions: topical application, concentrations 0.5-5%
# skin [4] = conditions: topical formulations, within four weeks of treatment
# [5] = compared to α-tocopherol = 1.0
# F2-isoprostane = conditions: large doses of 1600-3200 IU/day
# rheumatoid arthritis = conditions: arthritic subjects
# [6] = even when dietary intake occurs in equal portions
# markers of inflammation = conditions: supplementation, individuals with metabolic syndrome
# [7] = in vivo
compound,measurement,setting,value
CC(C)[C@@H]1CC[C@@H](C)C[C@H]1O [Menthol],factor of increase of transdermal drug uptake / penetration,skin [1],≥ 10
"CCCCCc1cc(O)c2c(c1)OC(C)(C)C1CCC(C)=CC21 (stereo not shown) [THC, Δ-9-tetrahydrocannabinol]",power in mediating pain relative to morphine,[2],ten times more powerful than morphine
"C=CCCCCCCCCC(=O)N[C@@H](Cc1ccccc1)C(=O)O [UP, Undecylenoyl phenylalanine]",time to skin lightening effects,skin [3],≥ 7 days
"CC12CCC(CC1)C(C)(C)O2 [eucalyptol, 1,8-epoxy-p-menthane]",factor of increase of transdermal drug uptake / penetration,skin [1],more than 10
"CC[C@H](C)[C@H](NC(=O)[C@H](CC(=O)O)NC(=O)[C@@H](N)CCCCN)C(=O)N[C@@H](CCCNC(N)=O)C(N)=O [tripeptide-10 citrulline, Tripeptide-10 citrulline] (HELM PEPTIDE1{K.D.I.[Cit].[am]}$$$$V2.0)",improvement of suppleness,skin [4],≤ 54%
Cc1c(C)c2c(c(C)c1O)CC[C@@](C)(CCC[C@H](C)CCC[C@H](C)CCCC(C)C)O2 [α-tocopherol],relative biological activity,[5],1.0
same,blood plasma concentration of F2-isoprostane,F2-isoprostane,significantly lower
same,reduction of risk of coronary disease,"dietary supplementation, doses up to 400 IU/day",up to 34%
same,reduction of risk of developing neurodegenerative diseases (Alzheimer's Syndrome or dementia),"dietary supplementation, doses up to 400 IU/day, controlled trials",≤ 24%
same,reduction in the development of age-related cataracts,"in combination with 10-20 mg β-carotene and 400-500 mg vitamin C, doses around 400-500 IU",23%
C=C1CC/C=C(\C)CC[C@@H]2[C@@H]1CC2(C)C [β-caryophyllene],increases of protein carbonyl groups and myeloperoxidase activity in liver and plasma,rheumatoid arthritis,eliminated
same,number of circulating and articular leukocytes,rheumatoid arthritis,reduced
same,swelling of joints and lymph nodes,rheumatoid arthritis,reduced
Cc1cc(O)c(C)c2c1O[C@](C)(CCC[C@H](C)CCC[C@H](C)CCCC(C)C)CC2 [β-tocopherol],relative biological activity,[5],0.5
Cc1c(O)cc2c(c1C)O[C@](C)(CCC[C@H](C)CCC[C@H](C)CCCC(C)C)CC2 [γ-tocopherol],relative biological activity,[5],0.1
same,concentration in vivo relative to α-tocopherol,[6],roughly 10%
Cc1cc(O)cc2c1O[C@](C)(CCC[C@H](C)CCC[C@H](C)CCCC(C)C)CC2 [δ-tocopherol],relative biological activity,[5],0.03
same,markers of inflammation in the blood,markers of inflammation,reduced
HGH: hormone comprising a peptide chain that is synthesized in the pituitary gland,biological half-life,[7],10-20 minutes
